Laboratory results reported in patent publication US7745436B2, “Disalt inhibitors of IL-12 production” (Synta Pharmaceuticals Corporation, priority 2004, dated 2010).

How the values were obtained:
[1] = Solubility determination in water (vortex, sonication at ~50° C, HPLC of supernatant); format: physicochemical; conditions: for Solubility: water, vortexed and sonicated ~5-10 min at ~50° C, HPLC
Method: The disalts described herein can have a relatively high solubility, e.g., water solubility. As used herein, the “solubility” of a disalt in a solvent refers to the maximum mass of a disalt that can be dissolved per unit volume of the solvent under accelerated dissolution conditions (50-60° C. with concommitant ultrasonic agitation of the disalt/solvent test sample). Unless otherwise indicated, solubility data is expressed in terms of units of milligrams (mg)/milliliter (mL), e.g., mg/mL.
The compound was weighed, and water was added to it such that the ratio of the sample and water of the mixture would be 100 mg/mL. The mixture was then shaken using a Vortex-Genie2 shaker (vortexed) and sonicated (˜5-10 min at ˜50° C). If a clear solution has been obtained, more compound was added to the solution, and a mixture was vortexed and sonicated until a homogeneous suspension was achieved. The suspension was then centrifuged at 10,000 rpm for about 10 min. The supernatant was taken out and diluted with 50/50 (v/v) EtOH/water, then the sample was analyzed by HPLC to determine the concentration.
The HPLC system consisted of the HP 1100 Model (Agilent, Wilmington, Del.) equipped with a model 1100 quaternary pump, a model 1100 autosampler, a model 1100 Diode-Array Detector for UV detection at 320 nm. The HPLC analysis was performed using an isocratic mobile phase consisting of acetonitrile-water containing 10 mM NH4OAc . Mobile phases were degassed and filtered through a solvent filtration apparatus and pumped at a constant rate of 1.0 mL/min. The separation was made on an XTerra MS C18 analytical column, 4.6 mm i.d.×150 mm, (Waters Corp., Milford, Mass., USA) fitted with a precolumn filter (XTerra MS C18, 3.9 mm×20mm). The column was maintained at 30° C. Data acquisition and instrument setting were controlled using HP Chemstation software (ver.8.03).

[2] = Solubility in water at fixed concentrations (5 mg per 0.1, 0.2 or 0.25 mL); format: physicochemical

| SMILES | melting point [°C] | Solubility [1] [mg/mL] | also measured |
| --- | --- | --- | --- |
| C(=NNc1cc(N2CCOCC2)nc(OCCc2ccccn2)n1)c1c[nH]c2ccccc12 | 160 to 165 |  |  |
| CN(N=Cc1c[nH]c2ccccc12)c1cc(N2CCOCC2)nc(OCCc2ccccn2)n1 | 130 to 140 |  |  |
| Cc1cccc(C=NNc2nc(OCCc3ccccn3)nc(N3CCOCC3)n2)c1 | 143 to 147 |  |  |
| C(=NNc1nc(OCCc2ccccn2)nc(N2CCOCC2)n1)c1c[nH]c2ccccc12 | 158 to 161 |  |  |
| CS(=O)(=O)O.Cc1cccc(C=NNc2cc(N3CCOCC3)nc(OCCc3ccccn3)n2)c1 [{[(1)(1H^+)]^1+•[1(CH3SO3^−)]^1−}, N-(3-Methyl-benzylidene)-N′-[6-morpholin-4-yl-2-(2-pyridin-2-yl-ethoxy)-pyrimidin-4-yl]-hydrazine 1 methanesulfonate (mesylate)] |  | 52.0 ± 0.1 |  |
| Cc1cccc(C=NNc2cc(N3CCOCC3)nc(OCCc3ccccn3)n2)c1.Cl [{[(1)(2H^+)]^1+•[1(Cl^−)]^1−}, N-(3 -Methyl-benzylidene)-N′-[6-morpholin-4-yl-2-(2-pyridin-2-yl-ethoxy)-pyrimidin-4-yl]-hydrazine (1) hydrochloride] |  | 12.6 ± 0.4 |  |
| CS(=O)(=O)O.CS(=O)(=O)O.Cc1cccc(C=NNc2cc(N3CCOCC3)nc(OCCc3ccccn3)n2)c1 [{[(1)(2H^+)]^2+•[2(CH3SO3^−)]^2−}, N-(3-Methyl-benzylidene)-N′-[6-morpholin-4-yl-2-(2-pyridin-2-yl-ethoxy)-pyrimidin-4-yl]-hydrazine (1) dimethanesulfonate (dimesylate)] |  | 831 ± 5 | solubility of disalt relative to the solubility of the corresponding monosalt ([1]; versus monosalt {[(1)(1H^+)]^1+.[1(CH3SO3^−)]}): more than ten times greater |
| Cc1cccc(C=NNc2cc(N3CCOCC3)nc(OCCc3ccccn3)n2)c1.Cl.Cl [{[(1)(2H^+)]^2+•[2(Cl^−)]^2−}, N-(3-Methyl-benzylidene)-N′-[6-morpholin-4-yl-2-(2-pyridin-2-yl-ethoxy)-pyrimidin-4-yl]-hydrazine (1) dihydrogenchloride (dichloride)] |  | 213 ± 5 | solubility in water at a concentration of 5 mg/0.1 mL [2]: soluble |
| Cc1cccc(C=NNc2cc(N3CCOCC3)nc(OCCc3ccccn3)n2)c1.O=[N+]([O-])O.O=[N+]([O-])O [{[(1)(2H^+)]^2+•[2(NO3^−)]^2−}, N-(3-Methyl-benzylidene)-N′-[6-morpholin-4-yl-2-(2-pyridin-2-yl-ethoxy)-pyrimidin-4-yl]-hydrazine (1) dinitrate] |  | 83.4 ± 0.2 | solubility in water at a concentration of 5 mg/0.1 mL [2]: insoluble; solubility in water at a concentration of 5 mg/0.2 mL ([2]; 5 mg/0.2 mL): partially soluble; solubility in water at a concentration of 5 mg/0.25 mL ([2]; 5 mg/0.25 mL): partially soluble |
| C(=NNc1cc(N2CCOCC2)nc(OCCc2ccccn2)n1)c1c[nH]c2ccccc12.CS(=O)(=O)O.CS(=O)(=O)O [{[(2)(2H^+)]^2+•[2(CH3SO3^−)]^2−}, N-(1H-indol-3-ylmethylene)—N′-[6-morpholin-4-yl-2-(2-pyridin-2-yl-ethoxy)-pyrimidin-4-yl]-hydrazine (2) dimethanesulfonate (dimesylate)] |  | 454 ± 5 |  |
| CN(N=Cc1c[nH]c2ccccc12)c1cc(N2CCOCC2)nc(OCCc2ccccn2)n1.CS(=O)(=O)O.CS(=O)(=O)O [{[(3)(2H^+)]^2+•[2(CH3SO3^−)]^2−}, N′-(1H-indol-3-ylmethylene)-N-methyl-N-[6-morpholin-4-yl-2-(2-pyridin-2-yl-ethoxy)-pyrimidin-4-yl]-hydrazine (3) dimesylate] |  | 306 ± 14 |  |
